Test results taken from ChEMBL document CHEMBL3853354, “Structure-activity relationships of proline modifications around the tetracyclic-indole class of NS5A inhibitors” (Bioorg Med Chem Lett, 2016).

How the values were obtained:
[1] = tested on: Nonstructural protein 5A (Hepatitis C virus), Q5L478 [UNDEFINED MUTATION]; assay: Inhibition of NS5A L31V mutant in HCV genotype 1a assessed as reduction in replicon RNA level after 3 days by cell based RT-PCR method; conditions: Hepatitis C virus subtype 1a
[2] = tested on: Hepatitis C virus subtype 2b; assay: Inhibition of NS5A in HCV genotype 2b assessed as reduction in replicon RNA level after 3 days by cell based RT-PCR method
[3] = tested on: Hepatitis C virus subtype 1a; assay: Inhibition of NS5A in HCV genotype 1a assessed as reduction in replicon RNA level after 3 days by cell based RT-PCR method
[4] = tested on: T1, Nonstructural protein 5A (Hepatitis C virus), Q5L478 [Y93H]; assay: Inhibition of NS5A Y93H mutant in HCV genotype 1a assessed as reduction in replicon RNA level after 3 days by cell based RT-PCR method; conditions: Hepatitis C virus subtype 1a
T1 sequence (whole entry): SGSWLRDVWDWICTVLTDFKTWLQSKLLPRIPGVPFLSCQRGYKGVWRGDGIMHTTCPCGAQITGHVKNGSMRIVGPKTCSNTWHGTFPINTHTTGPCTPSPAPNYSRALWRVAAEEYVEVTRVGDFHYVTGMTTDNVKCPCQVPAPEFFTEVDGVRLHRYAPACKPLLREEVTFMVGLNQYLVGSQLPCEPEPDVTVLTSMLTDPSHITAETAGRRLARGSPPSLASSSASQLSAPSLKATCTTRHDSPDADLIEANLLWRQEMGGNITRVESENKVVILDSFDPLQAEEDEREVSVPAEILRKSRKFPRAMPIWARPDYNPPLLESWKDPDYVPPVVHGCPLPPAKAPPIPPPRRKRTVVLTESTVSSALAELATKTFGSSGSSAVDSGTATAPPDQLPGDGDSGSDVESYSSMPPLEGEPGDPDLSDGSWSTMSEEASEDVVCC

[5] = tested on: Hepatitis C virus subtype 1a; assay: Selectivity ratio of EC90 for NS5A Y93H mutant in HCV genotype 1a to EC90 for NS5A in HCV genotype 1a
[6] = Selectivity ratio of EC90 for NS5A in HCV genotype 2b to EC90 for NS5A in HCV genotype 1a
[7] = tested on: Hepatitis C virus subtype 1a; assay: Selectivity ratio of EC90 for NS5A L31V mutant in HCV genotype 1a to EC90 for NS5A in HCV genotype 1a
[8] = tested on: Hepatitis C virus subtype 3a; assay: Inhibition of NS5A in HCV genotype 3a assessed as reduction in replicon RNA level after 3 days by cell based RT-PCR method

## COC(=O)N[C@H](C(=O)N1C[C@H](F)C[C@H]1c1ncc(-c2cc(F)c3c(c2)OC(c2cccc(OC)c2)n2c-3cc3cc(-c4cnc([C@@H]5C[Si](C)(C)CN5C(=O)[C@@H](NC(=O)OC)C(C)C)[nH]4)ccc32)[nH]1)C(C)C (some centres not stated)
[1]
  EC90: 13.6 nM
[2]
  EC90: 391 nM
[3]
  EC90: 0.3 nM
[4]
  EC90: 91.4 nM

## COC(=O)N[C@H](C(=O)N1CCC[C@H]1c1ncc(-c2ccc3c(c2)cc2n3C(c3cccc(OC)c3)Oc3cc(-c4cnc([C@@H]5C[C@H]6C[C@H]6N5C(=O)[C@@H](NC(=O)OC)C(C)C)[nH]4)cc(F)c3-2)[nH]1)C(C)C (some centres not stated)
[1]
  EC90: 0.36 nM
[2]
  EC90: 49.3 nM
[3]
  EC90: 0.026 nM
[4]
  EC90: 10.9 nM

## COC(=O)N[C@H](C(=O)N1CCC[C@H]1c1ncc(-c2ccc3c(c2)cc2n3C(c3ccccc3)Oc3cc(-c4cnc([C@@H]5C[C@@H](F)CN5C(=O)[C@@H](NC(=O)OC)C(C)C)[nH]4)cc(F)c3-2)[nH]1)C(C)C (some centres not stated)
[1]
  EC90: 2.17 nM
[5]
  Selectivity ratio: 233
[2]
  EC90: 63.6 nM
[3]
  EC90: 0.006 nM
[4]
  EC90: 1.4 nM
[6]
  Selectivity ratio: 10600
[7]
  Selectivity ratio: 362

## COC(=O)N[C@H](C(=O)N1CCC[C@H]1c1ncc(-c2cc(F)c3c(c2)OC(c2cccc(OC)c2)n2c-3cc3cc(-c4cnc([C@@H]5C[C@H]6C[C@H]6N5C(=O)[C@@H](NC(=O)OC)C(C)C)[nH]4)ccc32)[nH]1)C(C)C (some centres not stated)
[1]
  EC90: 0.084 nM
[2]
  EC90: 19.4 nM
[3]
  EC90: 0.007 nM
[8]
  EC90: 0.15 nM
[4]
  EC90: 1.64 nM

## COC(=O)N[C@H](C(=O)N1C[C@H](F)C[C@H]1c1ncc(-c2cc(F)c3c(c2)OC(c2cccc(OC)c2)n2c-3cc3cc(-c4cnc([C@@H]5C[C@@H](F)CN5C(=O)[C@@H](NC(=O)OC)C(C)C)[nH]4)ccc32)[nH]1)C(C)C (some centres not stated)
[1]
  EC90: 1.59 nM
[2]
  EC90: 39 nM
[3]
  EC90: 0.006 nM
[4]
  EC90: 0.065 nM

## COC(=O)N[C@H](C(=O)N1C[C@H](F)C[C@H]1c1ncc(-c2cc(F)c3c(c2)OC(c2cccc(OC)c2)n2c-3cc3cc(-c4cnc([C@@H]5C[C@H]6C[C@H]6N5C(=O)[C@@H](NC(=O)OC)C(C)C)[nH]4)ccc32)[nH]1)C(C)C (some centres not stated)
[1]
  EC90: 0.92 nM
[2]
  EC90: 52.2 nM
[3]
  EC90: 0.032 nM
[4]
  EC90: 5.15 nM

## COC(=O)N[C@H](C(=O)N1[C@@H]2CC(F)(F)[C@@H]2C[C@H]1c1ncc(-c2cc(F)c3c(c2)OC(c2cccc(OC)c2)n2c-3cc3cc(-c4cnc([C@@H]5C[C@@H]6[C@@H](CC6(F)F)N5C(=O)[C@@H](NC(=O)OC)C(C)C)[nH]4)ccc32)[nH]1)C(C)C (some centres not stated)
[1]
  EC90: 0.078 nM
[2]
  EC90: 58 nM
[3]
  EC90: 0.017 nM
[8]
  EC90: 0.29 nM
[4]
  EC90: 52.6 nM

## COC(=O)N[C@H](C(=O)N1C[C@H](OC)C[C@H]1c1ncc(-c2cc(F)c3c(c2)OC(c2cccc(OC)c2)n2c-3cc3cc(-c4cnc([C@@H]5C[C@@H](OC)CN5C(=O)[C@@H](NC(=O)OC)C(C)C)[nH]4)ccc32)[nH]1)C(C)C (some centres not stated)
[1]
  EC90: 0.19 nM
[2]
  EC90: 90.7 nM
[3]
  EC90: 0.015 nM
[8]
  EC90: 5.52 nM
[4]
  EC90: 0.79 nM

## COC(=O)N[C@H](C(=O)N1CCC[C@H]1c1ncc(-c2cc(F)c3c(c2)OC(c2ccccc2)n2c-3cc3cc(-c4cnc([C@@H]5C[C@H]6C[C@H]6N5C(=O)[C@@H](NC(=O)OC)C(C)C)[nH]4)ccc32)[nH]1)C(C)C (some centres not stated)
[1]
  EC90: 0.42 nM
[5]
  Selectivity ratio: 200
[2]
  EC90: 16.3 nM
[3]
  EC90: 0.016 nM
[4]
  EC90: 3.17 nM
[6]
  Selectivity ratio: 1000
[7]
  Selectivity ratio: 26

## COC(=O)N[C@H](C(=O)N1CC2(CC2)C[C@H]1c1ncc(-c2cc(F)c3c(c2)OC(c2cccc(OC)c2)n2c-3cc3cc(-c4cnc([C@@H]5CC6(CC6)CN5C(=O)[C@@H](NC(=O)OC)C(C)C)[nH]4)ccc32)[nH]1)C(C)C (some centres not stated)
[1]
  EC90: 0.05 nM
[2]
  EC90: 38.8 nM
[3]
  EC90: 0.011 nM
[8]
  EC90: 0.16 nM
[4]
  EC90: 23.7 nM

## COC(=O)N[C@H](C(=O)N1CCC[C@H]1c1ncc(-c2ccc3c(c2)cc2n3C(c3cccc(OC)c3)Oc3cc(-c4cnc([C@@H]5C[C@@H](F)CN5C(=O)[C@@H](NC(=O)OC)C(C)C)[nH]4)cc(F)c3-2)[nH]1)C(C)C (some centres not stated)
[1]
  EC90: 0.34 nM
[2]
  EC90: 18.8 nM
[3]
  EC90: < 0.002 nM
[8]
  EC90: 0.13 nM
[4]
  EC90: 0.55 nM

## COC(=O)N[C@H](C(=O)N1CC2(C[C@H]1c1ncc(-c3cc(F)c4c(c3)OC(c3cccc(OC)c3)n3c-4cc4cc(-c5cnc([C@@H]6CC7(CN6C(=O)[C@@H](NC(=O)OC)C(C)C)OCCCO7)[nH]5)ccc43)[nH]1)OCCCO2)C(C)C (mixture of isomers)
[1]
  EC90: 0.2 nM
[2]
  EC90: 114 nM
[3]
  EC90: 0.018 nM
[8]
  EC90: 15 nM
[4]
  EC90: 0.44 nM

## COC(=O)N[C@H](C(=O)N1CCC[C@H]1c1ncc(-c2cc(F)c3c(c2)OC(c2ccccc2)n2c-3cc3cc(-c4cnc([C@H]5[C@@H]6[C@H](CN5C(=O)[C@@H](NC(=O)OC)C(C)C)C6(C)C)[nH]4)ccc32)[nH]1)C(C)C (mixture of isomers)
[1]
  EC90: 21 nM
[2]
  EC90: 337 nM
[3]
  EC90: 0.02 nM
[8]
  EC90: > 10 nM
[4]
  EC90: > 100 nM

## COC(=O)N[C@H](C(=O)N1[C@@H]2CCCC[C@@H]2C[C@H]1c1ncc(-c2cc(F)c3c(c2)OC(c2cccc(OC)c2)n2c-3cc3cc(-c4cnc([C@@H]5C[C@H]6CCCC[C@H]6N5C(=O)[C@@H](NC(=O)OC)C(C)C)[nH]4)ccc32)[nH]1)C(C)C (some centres not stated)
[1]
  EC90: 0.51 nM
[2]
  EC90: 21 nM
[3]
  EC90: 0.18 nM
[4]
  EC90: 37.6 nM

## COC(=O)N[C@H](C(=O)N1C(C)CC[C@H]1c1ncc(-c2ccc3c(c2)OC(c2ccccc2)n2c-3cc3cc(-c4cnc([C@@H]5CCC(C)N5C(=O)[C@@H](NC(=O)OC)C(C)C)[nH]4)ccc32)[nH]1)C(C)C (single isomer, unassigned; diastereomer B)
[1]
  EC90: 5.74 nM
[2]
  EC90: 129 nM
[8]
  EC90: 51.5 nM
[4]
  EC90: 158 nM

## COC(=O)N[C@H](C(=O)N1[C@@H]2C[C@@H]2C[C@H]1c1ncc(-c2cc(F)c3c(c2)OC(c2cccc(OC)c2)n2c-3cc3cc(-c4cnc([C@@H]5C[C@H]6C[C@H]6N5C(=O)[C@@H](NC(=O)OC)C(C)C)[nH]4)ccc32)[nH]1)C(C)C (some centres not stated)
[1]
  EC90: 1.72 nM
[2]
  EC90: 22.5 nM
[3]
  EC90: 0.005 nM
[8]
  EC90: 0.17 nM
[4]
  EC90: 0.51 nM

## COC(=O)N[C@H](C(=O)N1C[C@H](OC(F)F)C[C@H]1c1ncc(-c2cc(F)c3c(c2)OC(c2cccc(OC)c2)n2c-3cc3cc(-c4cnc([C@@H]5C[C@@H](OC(F)F)CN5C(=O)[C@@H](NC(=O)OC)C(C)C)[nH]4)ccc32)[nH]1)C(C)C (some centres not stated)
[2]
  EC90: 55.6 nM
[3]
  EC90: 0.021 nM
[8]
  EC90: 12.9 nM
[4]
  EC90: 5.27 nM

## COC(=O)N[C@H](C(=O)N1CCC[C@H]1c1ncc(-c2cc(F)c3c(c2)OC(c2cccc(OC)c2)n2c-3cc3cc(-c4cnc([C@@H]5C[C@@H](F)CN5C(=O)[C@@H](NC(=O)OC)C(C)C)[nH]4)ccc32)[nH]1)C(C)C (some centres not stated)
[1]
  EC90: 0.29 nM
[2]
  EC90: 33.6 nM
[3]
  EC90: 0.01 nM
[4]
  EC90: 1.81 nM

## COC(=O)N[C@H](C(=O)N1CC[C@H](OC)[C@H]1c1ncc(-c2cc(F)c3c(c2)OC(c2cccc(OC)c2)n2c-3cc3cc(-c4cnc([C@@H]5[C@@H](OC)CCN5C(=O)[C@@H](NC(=O)OC)C(C)C)[nH]4)ccc32)[nH]1)C(C)C (some centres not stated)
[1]
  EC90: 24.5 nM
[2]
  EC90: 322 nM
[3]
  EC90: 2.67 nM
[8]
  EC90: 30 nM
[4]
  EC90: 3.86 nM

## COC(=O)N[C@H](C(=O)N1CCC[C@H]1c1ncc(-c2cc(F)c3c(c2)OC(c2ccc4c(c2)OCCC4)n2c-3cc3cc(-c4cnc([C@@H]5CCCN5C(=O)[C@@H](NC(=O)OC)C(C)C)[nH]4)ccc32)[nH]1)C(C)C (some centres not stated)
[1]
  EC90: 0.0025 nM
[5]
  Selectivity ratio: 160
[2]
  EC90: 0.31 nM
[3]
  EC90: 0.003 nM
[4]
  EC90: 0.48 nM
[6]
  Selectivity ratio: 103
[7]
  Selectivity ratio: 1

## COC(=O)N[C@H](C(=O)N1CCC[C@H]1c1ncc(-c2cc(F)c3c(c2)OC(c2cccc(OC)c2)n2c-3cc3cc(-c4cnc([C@@H]5[C@H]6CC[C@H](C6)N5C(=O)[C@@H](NC(=O)OC)C(C)C)[nH]4)ccc32)[nH]1)C(C)C (some centres not stated)
[1]
  EC90: 0.9 nM
[2]
  EC90: 51.8 nM
[3]
  EC90: 0.002 nM
[8]
  EC90: 0.92 nM
[4]
  EC90: 26.1 nM

## COC(=O)N[C@H](C(=O)N1C(C)CC[C@H]1c1ncc(-c2ccc3c(c2)OC(c2ccccc2)n2c-3cc3cc(-c4cnc([C@@H]5CCC(C)N5C(=O)[C@@H](NC(=O)OC)C(C)C)[nH]4)ccc32)[nH]1)C(C)C (single isomer, unassigned; diastereomer A)
[1]
  EC90: 1.72 nM
[2]
  EC90: 75 nM
[8]
  EC90: 6.14 nM
[4]
  EC90: 64 nM

## COC(=O)N[C@H](C(=O)N1C[C@@H](OC)C[C@H]1c1ncc(-c2cc(F)c3c(c2)OC(c2cccc(OC)c2)n2c-3cc3cc(-c4cnc([C@@H]5C[C@H](OC)CN5C(=O)[C@@H](NC(=O)OC)C(C)C)[nH]4)ccc32)[nH]1)C(C)C (some centres not stated)
[1]
  EC90: 0.04 nM
[2]
  EC90: 5.74 nM
[3]
  EC90: 0.017 nM
[8]
  EC90: 0.71 nM
[4]
  EC90: 8.87 nM
